Source: publication PMC8072890, “Aminoalkylamides of Eremomycin Exhibit an Improved Antibacterial Activity” (Pharmaceuticals, 2021)

Tests used:
E. faecalis 559 = format: cell-based; conditions: sensitive strain; broth dilution micromethod, CLSI; modal values (or range) of 3–5 independent tests
Source text: (§1) The antimicrobial activity of semisynthetic derivatives of eremomycin 4a–q was studied in comparison with vancomycin on a wide panel of Gram-positive bacteria sensitive (Staphylococcus aureus ATCC 29213, S. aureus R-2, S. haemoliticus 602, S. pneumoniae ATCC 6305, Enteroccus faecium 4, and E. faecalis 559) and resistant to vancomycin (S. aureus 3797, S.aureus 3798, E. faecium 2, E. faecium 3576, E. faecalis 9, E. faecalis 583, and E. gallinarum BΠ 4147), information about the strains given in Table S3. The minimum microbial inhibitory concentration (MIC) for the test compounds was determined by the broth dilution micromethod according to CLSI guidelines, and vancomycin and a standard strain S. aureus ATCC 29213 used as controls (Figure 2 and Tables S4 and S5).
(§2) Table S4. Antibacterial activity of vancomycin and derivatives 4a–q against sensitive Gram-positive bacteria.
(§3) Strain/MIC (Minimum inhibitory concentration, μg/ml)*
(§4) Compound m n R S.aureus АТСС S.aureus R-2 S.haemoliticus S.pneumoniae АТСС E. faecium 4 E. faecalis 559
(§5) *MICs are presented as modal values for 3–5 independently replicated MIC tests for each strain and for the antibiotics. In the range of the
(§6) obtained MIC values, the obtained modal values are highlighted in bold.

E. faecium 4 = format: cell-based; conditions: sensitive strain; broth dilution micromethod, CLSI; modal values (or range) of 3–5 independent tests
Source text: as §1, §2, §3, §4, §5, §6

S. aureus R-2 = format: cell-based; conditions: sensitive strain; broth dilution micromethod, CLSI; modal values (or range) of 3–5 independent tests
Source text: as §1, §2, §3, §4, §5, §6

S. haemoliticus 602 = format: cell-based; conditions: sensitive strain; broth dilution micromethod, CLSI; modal values (or range) of 3–5 independent tests
Source text: as §1, §2, §3, §4, §5, §6

[1] = system: Staphylococcus aureus ATCC 29213; format: cell-based; conditions: vancomycin-sensitive control strain; broth dilution micromethod, CLSI; modal values (or range) of 3–5 independent tests
Source text: as §1, §2, §3, §4, §5, §6

S. pneumoniae ATCC 6305 = experiment: MIC, broth dilution micromethod (CLSI); format: cell-based; conditions: sensitive strain, modal values (or range) of 3–5 independent tests
Source text: as §1, §2, §3, §4, §5, §6

E. faecalis 583 = format: cell-based; conditions: strain resistant to vancomycin; broth dilution micromethod, CLSI; modal values (or range) of 3–5 independent tests
Source text: as §1
(§7) Table S5. Antibacterial activity of vancomycin and derivatives 4a–q against resistant Gram-positive bacteria.
(§8) Strain/MIC (minimum inhibitory concentration; μg/ml)
(§9) Compound m n R S.aureus 3797 S.aureus 3798 E. faecium 2 E. faecium 3576 E. faecalis 9 E. faecalis 583 E. gallinarum
(§10) *MICs are presented as modal values for 3–5 independently replicate MIC tests for each strain and for the antibiotics. In the range of the obtained MIC
(§11) values, the obtained modal values are highlighted in bold.

E. faecalis 9 = format: cell-based; conditions: strain resistant to vancomycin; broth dilution micromethod, CLSI; modal values (or range) of 3–5 independent tests
Source text: as §1, §7, §8, §9, §10, §11

E. faecium 2 = format: cell-based; conditions: strain resistant to vancomycin; broth dilution micromethod, CLSI; modal values (or range) of 3–5 independent tests
Source text: as §1, §7, §8, §9, §10, §11

E. faecium 3576 = format: cell-based; conditions: strain resistant to vancomycin; broth dilution micromethod, CLSI; modal values (or range) of 3–5 independent tests
Source text: as §1, §7, §8, §9, §10, §11

E. gallinarum BΠ 4147 = format: cell-based; conditions: strain resistant to vancomycin; broth dilution micromethod, CLSI; modal values (or range) of 3–5 independent tests
Source text: as §1, §7, §8, §9, §10, §11

S. aureus 3797 = format: cell-based; conditions: strain resistant to vancomycin; broth dilution micromethod, CLSI; modal values (or range) of 3–5 independent tests
Source text: as §1, §7, §8, §9, §10, §11

S.aureus 3798 = format: cell-based; conditions: strain resistant to vancomycin; broth dilution micromethod, CLSI; modal values (or range) of 3–5 independent tests
Source text: as §1, §7, §8, §9, §10, §11

[2] = system: S. aureus (strain 10, clinical isolate); experiment: Mouse staphylococcal sepsis model, single IV administration; format: in vivo, mice (SHK colony); conditions: for Survival: single IV, 30 min after infection, n = 10
Procedure: A comparative study of the efficacy of eremomycin N-(2-((2-fluorobenzyl)amino)ethyl)amide (4e) and vancomycin was carried out in a mice staphylococcal sepsis model. Healthy female mice of the SHK colony weighing 20–22 g after two-week quarantine were randomized into groups (n = 10) and received S. aureus as the infectious agent (strain 10, clinical isolate, adapted for growth in vivo by five-fold passaging in mice). In the experiment, female mice of the SHK colony weighing 20–22 g were used. S. aureus (strain 10, clinical isolate), adapted for growth in vivo by five-fold passaging in mice, was used as the infectious agent. Initially, the lethal dose (LD100) of staphylococcus was determined for this mouse line using the intravenous infection route. The mice deaths were counted daily for 10 days. Thus, the lethal dose (LD100) was defined as 8 × 10^8 CFU/mouse. Afterwards, the mice were seated in cages of 10 heads and were infected intravenously with S. aureus at a lethal dose, and the efficacy of the tested drugs was determined by the ED50 value (i.e., the dose at which 50% of the experimental animals survive). Then, 30 min after infection, the mice were injected intravenously with eremomycin N-(2-((2-fluorobenzyl)amino)ethyl)amide (4e) at single doses from 0.1 to 2.5 mg/kg. or vancomycin at doses from 2.5 to 7.5 mg/kg. As a control dose, a group of untreated animals infected with a lethal dose of S. aureus was present in the experiment. The determination of ED50 of the tested compounds was carried out in one experiment under a single control using the Behrens method.

Substance	MIC E. faecalis 559 (E. faecalis 559)	MIC E. faecium 4 (E. faecium 4)	MIC S.aureus R-2 (S. aureus R-2)	MIC S.haemoliticus 602 (S. haemoliticus 602)	MIC S.aureus ATCC 29213 [1]	MIC S.pneumoniae ATCC 6305 (S. pneumoniae ATCC 6305)	MIC E. faecalis 583 (E. faecalis 583)	MIC E. faecalis 9 (E. faecalis 9)	MIC E. faecium 2 (E. faecium 2)	MIC E. faecium 3576 (E. faecium 3576)	MIC E. gallinarum ВП 4147 (E. gallinarum BΠ 4147)	MIC S.aureus 3797 (S. aureus 3797)	MIC S.aureus 3798 (S.aureus 3798)	Survival ([2]; dose 0.5 mg/kg)	Survival ([2]; dose 1.5 mg/kg)	Survival ([2]; dose 2.5 mg/kg)	Survival ([2]; dose 3.5 mg/kg)	Survival ([2]; dose 4.5 mg/kg)	Survival ([2]; dose 5.5 mg/kg)	ED50 ([2]; mice infected IV with lethal dose of S. aureus (8 × 10^8 CFU/mouse), single IV dose 30 min after infection, n = 10 per group, observed 14 days, Behrens method)
Eremomycin N-(2-(benzylamino)ethyl)amide [4a]	0.25 mg/L	0.25 to 0.5 mg/L	0.03 mg/L	0.5 mg/L	0.25 mg/L	0.25 mg/L	0.5 mg/L	0.06 mg/L	1 mg/L	1 to 2 mg/L	1 mg/L	0.5 mg/L	0.5 to 1 mg/L							
Eremomycin N-(2-((4-fluorobenzyl)amino)ethyl)amide [4h]	0.125 mg/L	0.25 mg/L	0.06 mg/L	0.25 mg/L	0.25 mg/L	0.01 mg/L	0.5 to 1 mg/L	0.03 mg/L	0.5 mg/L	2 mg/L	0.5 to 1 mg/L	0.25 mg/L	0.5 mg/L							
Eremomycin N-(2-((3-fluorobenzyl)amino)ethyl)amide [4g]	0.25 to 0.5 mg/L	0.25 mg/L	0.06 mg/L	0.5 mg/L	0.03 mg/L	0.01 mg/L	0.5 to 1 mg/L	0.03 mg/L	0.5 mg/L	1 mg/L	1 mg/L	1 mg/L	2 mg/L							
Eremomycin N-(2-((2-chloro-6-fluorobenzyl)ethyl)amide [4m]	0.5 to 1 mg/L	0.5 mg/L	0.125 to 0.25 mg/L	0.125 mg/L	0.25 mg/L	0.06 mg/L	1 mg/L	0.25 to 0.5 mg/L	1 mg/L	2 mg/L	2 mg/L	2 mg/L	2 mg/L							
Eremomycin N-(2-((4-methylbenzyl)amino)ethyl)amide [4c]	0.25 mg/L	0.25 mg/L	0.25 mg/L	0.25 mg/L	0.25 mg/L	0.01 mg/L	1 to 2 mg/L	0.03 mg/L	1 mg/L	1 mg/L	0.5 mg/L	0.5 mg/L	1 mg/L							
Eremomycin														20%	40%	80%	80%	100%	100%	1.8 mg/kg

Continued, in another order:

MIC E. faecalis 559 (E. faecalis 559)	MIC E. faecium 4 (E. faecium 4)	MIC S.aureus R-2 (S. aureus R-2)	MIC S.haemoliticus 602 (S. haemoliticus 602)	MIC S.aureus ATCC 29213 [1]	MIC S.pneumoniae ATCC 6305 (S. pneumoniae ATCC 6305)	MIC E. faecalis 583 (E. faecalis 583)	MIC E. faecalis 9 (E. faecalis 9)	MIC E. faecium 2 (E. faecium 2)	MIC E. faecium 3576 (E. faecium 3576)	MIC E. gallinarum ВП 4147 (E. gallinarum BΠ 4147)	MIC S.aureus 3797 (S. aureus 3797)	MIC S.aureus 3798 (S.aureus 3798)	Substance	Survival ([2]; dose 0.5 mg/kg)	Survival ([2]; dose 1.5 mg/kg)	Survival ([2]; dose 2.5 mg/kg)	Survival ([2]; dose 3.5 mg/kg)	Survival ([2]; dose 4.5 mg/kg)	Survival ([2]; dose 5.5 mg/kg)	ED50 ([2]; mice infected IV with lethal dose of S. aureus (8 × 10^8 CFU/mouse), single IV dose 30 min after infection, n = 10 per group, observed 14 days, Behrens method)
2 mg/L	1 mg/L	1 mg/L	0.5 mg/L	1 mg/L	0.5 mg/L	2 mg/L	0.25 to 0.5 mg/L	2 mg/L	2 mg/L	2 mg/L	2 mg/L	1 to 2 mg/L	Eremomycin N-(2-((3,4-dichlorobenzyl)amino)ethyl)amide [4o]							
0.5 mg/L	0.5 mg/L	0.06 mg/L	0.5 mg/L	0.5 mg/L	0.01 mg/L	0.5 mg/L	0.06 mg/L	1 mg/L	2 mg/L	1 mg/L	1 mg/L	2 mg/L	Eremomycin N-(2-phenethylamino)ethyl)amide [4b]							
0.5 mg/L	0.5 mg/L	0.125 to 0.25 mg/L	0.125 mg/L	0.25 mg/L	0.01 mg/L	1 mg/L	0.06 mg/L	1 mg/L	1 mg/L	1 mg/L	0.5 mg/L	1 mg/L	Eremomycin N-(2-((3,5-difluorobenzyl)amino)ethyl)amide [4k]							
1 mg/L	1 mg/L	0.25 to 0.5 mg/L	0.25 mg/L	0.5 mg/L	0.03 to 0.06 mg/L	2 mg/L	0.25 mg/L	2 mg/L	2 mg/L	2 mg/L	1 mg/L	2 mg/L	Eremomycin N-(2-((2,4-dichlorobenzyl)amino)ethyl)amide [4n]							
0.5 mg/L	0.25 mg/L	0.25 mg/L	0.25 mg/L	0.125 to 0.25 mg/L	00.03 mg/L	0.5 to 1 mg/L	0.06 mg/L	0.5 mg/L	1 mg/L	0.5 mg/L	0.25 to 0.5 mg/L	1 mg/L	Eremomycin N-(2-((4-chlorobenzyl)amino)ethyl)amide [4i]							
2 mg/L	1 mg/L	2 mg/L	0.5 mg/L	1 mg/L	0.01 mg/L	4 mg/L	0.25 mg/L	1 to 2 mg/L	4 mg/L	4 mg/L	2 mg/L	2 mg/L	Eremomycin N-(2-((4-trifluoromethylbenzyl)amino)ethyl)amide [4q]							
